One block for each compound: values may come before it. Peptide text beside a SMILES is read from it. * marks the point of attachment. CH2Cl = ClC*
Experiments:
[1] = test system: PARP and caspase-3 in U937 cells; experiment: Expression of apoptosis associated proteins after AraC; assay type: cell-based, human; details: 5 μM AraC, 0 h, 3 hours, 6 hours, FIG. 2C
Description: Immediately after culturing start (0 h) under the administration of 5 μM of AraC, after 3 hours and after 6 hours, the expression of apoptosis associated proteins of U937 cells was measured.

[2] = test system: nucleophosmin (NPM) in Colo201; experiment: Western blot of nucleophosmin (NPM) fragments; assay type: cell-based, human; details: after AraC administration, FIG. 3A
Excerpt: (§1) By the same method as FIG. 2C, protein groups extracted from the respective cells of U937, HL60 and Colo201 were molecular weight fractionated by way of electrophoresis of a conventional method, and the behavior of nucleophosmin (NPM), which is a cell survival factor (anti-apoptotic factor), was further investigated by the western blot method of a conventional method. It should be noted that monoclonal anti-GB23 (nucleophosmin/NPM) (catalog number B0556), which is an anti-NPM antibody, was purchased from Sigma-Aldrich (Saint Louis, Mo., USA).

[3] = test system: nucleophosmin (NPM) in HL60; experiment: Western blot of nucleophosmin (NPM) fragments; assay type: cell-based, human; details: after AraC administration, FIG. 3A
Excerpt: as §1

[4] = test system: nucleophosmin (NPM) in U937; experiment: Western blot of nucleophosmin (NPM) fragments; assay type: cell-based, human
Excerpt: as §1
NPM fragments were recovered by the immunoprecipitation method, and the N-terminal amino acids at the cleavage site of NPM were analyzed to carry out identification of the protease participating in the cleavage of NPM. It should be noted that “LC” in FIG. 3B is a light chain of the antibody used in immunoprecipitation.

granzyme M in U937 cells [5] = experiment: Western blot, expression of granzyme M; assay type: cell-based, human; details: 5 μM AraC, 0 h, 1, 3 and 5 hours, FIG. 4
Description: (§2) Using U937 cells, Colo201 cells (negative control) and KHYG-1 cells (positive control), which are human NK cells, 5 μM of AraC was added to the culture medium, and culturing was carried out. Immediately after culturing initiation (0 h), after 1 hour, after 3 hours and after 5 hours, cells were recovered from the cell medium, and protein groups were extracted from the cells. The amount of protein group was measured, and a certain amount of protein group was molecular weight fractionated by way of electrophoresis of a conventional method.
By way of western blot of a conventional method, the expression of granzyme M was detected. […] The expression of granzyme M in U937 cells, which are cancer cells, is a novel discovery that had not been known conventionally. […] It should be noted that GZMM Antibody (catalog number: AP6792c) by Abgent was used as the granzyme M antibody.

granzyme M in HL60 cells [6] = molecular target: T1, granzyme M in HL60 cells (Homo sapiens, UniProt P51124); experiment: Granzyme M activity in extracted protein group (substrate, OD 405 nm); assay type: cell-based; details: 5 μM AraC, 0 h, 3, 5 and 7 hours, FIG. 7
T1 construct: endogenous in cells; host or cells: U937, HL60
T1 sequence (P51124 26-257): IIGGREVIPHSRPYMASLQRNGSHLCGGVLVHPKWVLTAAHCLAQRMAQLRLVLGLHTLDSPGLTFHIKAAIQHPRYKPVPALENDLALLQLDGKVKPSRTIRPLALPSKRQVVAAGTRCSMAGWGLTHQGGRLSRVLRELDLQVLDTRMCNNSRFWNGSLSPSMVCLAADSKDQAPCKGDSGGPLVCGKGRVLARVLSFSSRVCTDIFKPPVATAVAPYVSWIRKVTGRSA
Description: (§3) At the same conditions (5 μM AraC) as Test Example 1, U937 cells, HL60 cells and KHYG-1 cells (positive control section) were cultured, cells were recovered from the culture medium immediately after culturing initiation (0 h), after 3 hours, after 5 hours and after 7 hours, and the protein groups were extracted from the cells.
(§4) To a measurement buffer (100 mM HEPES, 50 mM CaCl2, pH 7.4), 30 μg of protein group was introduced, and after adding substrate in an amount for a concentration of 200 μM, was incubated at 37° C. for 1 hour, and the absorbance at OD 405 nm was measured. It should be noted that the substrate was one synthesized by referencing Sami Mahrus, Walter Kisiel, and Charles S. Craik, Granzyme M is a regulatory protease that inactivates proteinase inhibitor 9, an endogenous inhibitor of granzyme B, J. Biol. Chem., 279, pp. 54275-54282, 2004. The vertical axis in FIG. 7 is an activity relative value for granzyme M calculated based on the absorbance.

granzyme M in HL60 cells [7] = experiment: Western blot, expression of granzyme M; assay type: cell-based, human; details: 5 μM AraC, FIG. 6
Description: as §2
(§5) Except for the point of using HL60 cells and KHYG-1 cells (positive control section), the expression of granzyme M and perforin was examined at the same conditions as Test Example 3.

granzyme M in U937 cells [8] = molecular target: T2, granzyme M in U937 cells (Homo sapiens, UniProt P51124); experiment: Granzyme M activity in extracted protein group (substrate, OD 405 nm); assay type: cell-based; details: 5 μM AraC, 0 h, 3, 5 and 7 hours, FIG. 7
T2 construct: endogenous in cells; host or cells: U937, HL60
T2 sequence (P51124 26-257): T1 sequence (P51124 26-257)
Description: as §3, §4
Next, using protein groups arrived at by administering serine protease inhibitor (50 μM TPCK) to the culture medium, culturing U937 cells under the same conditions for 7 hours, and recovering, the absorbance was measured in the same way as above. The vertical axis in FIG. 3 is the activity relative value for granzyme M calculated based on the absorbance.

perforin in U937 cells = experiment: Western blot, expression of perforin; assay type: cell-based, human; details: 5 μM AraC, FIG. 5
Description: Using U937 cells, Colo201 cells (negative control) and KHYG-1 cells (positive control), which are human NK cells, 5 μM of AraC was added to the culture medium, and culturing was carried out. Immediately after culturing initiation (0 h), after 1 hour, after 3 hours and after 5 hours, cells were recovered from the cell medium, and protein groups were extracted from the cells. The amount of protein group was measured, and a certain amount of protein group was molecular weight fractionated by way of electrophoresis of a conventional method. The expression of perforin was detected by way of western blot of a conventional method. […] It should be noted that Mouse Anti-Human Perforin, Monoclonal Antibody (catalog number: 3465-6-250) by Mabtech was used as the perforin antibody.

perforin in HL60 cells = experiment: Western blot, expression of perforin; assay type: cell-based, human; details: 5 μM AraC, FIG. 6
Description: as §2, §5

Colo201 = experiment: Cell growth / viability, Cell Counting Kit 8 (WST-8); assay type: cell-based, human; details: AraC 1, 5, 10 and 50 μm, 24 hours, FIG. 2A
Description: (§6) Using U937 cells and HL60 cells, which are human leukemia cells, and Colo201, which are human colon cancer cells (all purchased from cell bank), 3×10^3 of each cell were seeded in 96 well plates, and then cultured with 100 μl of RPMI cell medium (containing 10% fetal bovine serum (FBS), 2 mM L-glutamine, 100 units/ml penicillin, 100 μg/ml streptomycin, 250 ng/ml amphoterin B) per each well. At this time, AraC (cylocide) being used in the treatment of acute myelocytic leukemia by conventional pathology was added to the culture medium at the respective concentrations of 1, 5, 10 and 50 μm, and cultured under the conditions of 37° C. and 5% CO2 for 24 hours. Subsequently, 10 μl of WST-8 solution was placed per 1 well, and cultured at 37° C. for 4 hours.
(§7) The growth of cells was measured using a Cell Counting Kit 8 (Dojindo). This method is a measurement method establishing the dehydrogenase activity in viable cells as an index, and performs measurement of viable cell count based on WST-8 (2-(2-methoxy-4-nitrophenyl)-3-(4-nitrophenyl)-5-(2,4-disulfophenyl)-2H-tetrazolium, monosodium salt), which is a tetrazolium salt, being reduced to form formazan. More specifically, using a spectrophotometer Multiscan JX (Thermo Labsystems, Waltham, Mass.), the absorbance at 450 nm was measured, and the absorbance at 690 nm was used as the reference. The vertical axis in the graph of FIG. 2A represents the extent of cell viability by relative value.

U937 cells [9] = experiment: as above; assay type: cell-based, human; details: AraC 1, 5, 10 and 50 μm, 24 hours, FIG. 2A, p<0.01
Description: as §6, §7

HL60 cells [10] = experiment: as above; assay type: cell-based, human; details: AraC 1, 5, 10 and 50 μm, 24 hours, FIG. 2A, p<0.01
Description: as §6, §7

HL60 cells [11] = experiment: Viable cell count by tryptan blue method; assay type: cell-based, human; details: inhibitor alone 0.75 mg/ml, 14 hours
Description: (§8) Ac-KVPL-CMK, which is an inhibitor specific to granzyme M, was added to the culture medium (5 μM AraC) in an amount making a final concentration of 0.75 mg/ml, and then pre-incubated. To 48 well plates, 5×10^5 of each cell (U937 cells and HL60 cells) were seeded, and culturing was initiated with 200 μl of culture medium per well. Fourteen hours after culturing initiation, the number of viable cells was measured by the tryptan blue method (mixing a cell suspension and tryptan blue solution in 1:1, placing in a hemocytometer, and counting the number of cells using an optical microscope). It should be noted that Ac-KVPL-CMK was synthesized based on the tertiary structure of granzyme M (L. Wu et. al., Structural basis for proteolytic specificity of the human apoptosis-inducing granzyme M, J. Immunol., 2009; 183: 421-429).

U937 cells [12] = experiment: Viable cell count by tryptan blue method; assay type: cell-based, human; details: inhibitor alone 0.75 mg/ml, 14 hours
Description: as §8, with “Ac-KVPL-CMK, which is an inhibitor specific to granzyme M, was added to the culture medium (5 μM AraC) in an amount making a final concentration of 0.75 mg/ml, and then pre-incubated.” left out

granzyme M in Hela cells = molecular target: T3, granzyme M in Hela cells (Homo sapiens, UniProt P51124); experiment: Granzyme M activity in extracted protein group (substrate, OD 405 nm); assay type: cell-based; details: CDDP 50 μM, 24 hours culture, incubation 10 min, 8 hr (P<0.05), 21 hr (P<0.01) vs. control, FIG. 11
T3 construct: endogenous in cells; host or cells: Hela
T3 sequence (P51124 26-257): T1 sequence (P51124 26-257)
Description: as §4
Using Hela cells, which are human solid carcinoma cells, the action causing granzyme M activity of CDDP 50 μM conventionally used as a curative drug for solid carcinoma was investigated by culturing Hela cells for 24 hours at the same conditions as Test Example 5. The vertical axis in FIG. 11 is the activity relative value for granzyme M calculated based on the absorbance, and on the horizontal axis are test groups having incubation times of “10 min”, “8 hr” (8 hours) and “21 hr” (21 hours), in which “control” is the substrate without CDDP, and “CDDP” is the substrate and CDDP addition.

Structure (SMILES): Nc1ccn([C@@H]2O[C@H](CO)[C@@H](O)[C@@H]2O)c(=O)n1 [AraC]
PARP decomposition [1]: decomposed along with the elapse of time | caspase-3 decomposition [1]: decomposed along with the elapse of time | fragments of NPM [2]: not detected | fragments of NPM [3]: detected along with the elapse of time | cleavage site of NPM fragment (N-terminal amino acid sequence AAED) ([4]; NPM fragments recovered by immunoprecipitation after AraC administration, FIG. 3B): cleaved by Leu-158 of NPM | fragments of NPM ([4]; U937, after AraC administration, FIG. 3A): detected along with the elapse of time | expression level of granzyme M (granzyme M in U937 cells [5]): unrelated to the elapse of AraC administration time | activity of granzyme M (relative value) (granzyme M in HL60 cells [6]): increases along with the elapse of time | expression level of granzyme M (granzyme M in HL60 cells [7]): tendency of the expression level being exacerbated depending on the time elapsed | activity of granzyme M (relative value) (granzyme M in U937 cells [8]): increases along with the elapse of time | expression of perforin (perforin in U937 cells): not induced | expression of perforin (perforin in HL60 cells): not recognized | cell death (cell viability, relative value) (Colo201): not induced | cell death (cell viability, relative value) (U937 cells [9]): concentration dependently induced | cell death (cell viability, relative value) (HL60 cells [10]): concentration dependently induced

Structure (SMILES): CC(=O)N[C@@H](CCCCN)C(=O)N[C@H](C(=O)N1CCC[C@H]1C(=O)N[C@@H](CC(C)C)C(=O)CCl)C(C)C [granzyme M-specific inhibitor, Ac-KVPL-CMK] (Ac-KVPL-CH2Cl)
viable cell count, sole administration vs. control group (HL60 cells [11]): significant difference in viable cell count was not confirmed | viable cell count, sole administration vs. control group (U937 cells [12]): significant difference in viable cell count was not confirmed

activity of granzyme M (relative value) (granzyme M in Hela cells): increased with the elapse of time
Structure (SMILES): [NH2][Pt]([NH2])([Cl])[Cl] [CDDP, cisplatin]

Reference: US20150031872A1, “METHOD FOR SCREENING ANTICANCER DRUGS, AND ANTICANCER DRUG THAT INDUCES CELL DEATH AND USES SUBSTANCE THAT INCREASES GRANZYME M ACTIVITY AS ACTIVE INGREDIENT” (LSIP, LLC, priority 2012, published 2015)
